Patent US12343319B2, “Compositions and methods for treatment of diseases and disorders” (Atai Therapeutics Inc., priority 2023, dated 2025)
Read-outs that look alike come from different tables or passages of the source.

Legend:
5-HT2B = molecular target: T1, 5-HT2B (Homo sapiens, UniProt P41595); assay: Radioligand binding, 5-HT2B; conditions: for Max % inhibition: radioligand binding, human 5-HT2B
T1 construct: expressed in transfected cells

5-HT2A [1] = molecular target: T2, 5-HT2A (Homo sapiens, UniProt P28223); assay: β-Arrestin, 5-HT2A; type: cell-based; design: expressed in transfected cells; conditions: for Emax: read-out: Emax (%5-HT)
Procedure: (§1) In vitro pharmacology studies were performed to evaluate the effects of compound 2-1 on functional activity of several 5-HT receptors using recombinant target overexpression cell culture systems. The effect of compound 2-1 on G protein-dependent signaling was investigated at 5-HT2A, 5-HT2B, and 5-HT2C receptors with calcium mobilization and IPOne assays; and at 5-HT1A, 5-HT1B, 5-HT1F, 5-HT5A, and 5-HT7D receptors with a cAMP assay. G protein-independent signaling was investigated at the 5-HT2A receptor with a β-Arrestin assay.
(§2) In vitro pharmacology studies were performed to evaluate the effects of compound 2-2 on functional activity at several 5-HT receptors using recombinant target overexpression cell culture systems. The effect of compound 2-2 on G protein-dependent signaling was investigated at 5-HT2A, 5-HT2B, and 5-HT2C receptors with calcium mobilization and IPOne assays; and at 5-HT1A, 5-HT1B, 5-HT1F, 5-HT5A, and 5-HT7D receptors with a cAMP assay. G protein-independent signaling was investigated at the 5-HT2A receptor with a β-arrestin assay. […] In Table 4, 5-HT receptor selectivity was calculated using ΔΔlog(Emax/EC50). Assay reference α-Me-5-HT or 5-HT was used for normalization at each receptor (5-HT2A/5-HT2B selectivity=1; 5-HT2A/5-HT2C selectivity=1). ND in Table 4 indicates, not determined, plateau was not reached within the concentration range tested to determine Emax.

5-HT2A [2] = molecular target: T2, 5-HT2A; assay: Radioligand binding, 5-HT2A; design: expressed in transfected cells; conditions: for Max % inhibition: radioligand binding, human 5-HT2A
5-HT7D = molecular target: T3, 5-HT7D (Homo sapiens, UniProt P34969); assay: cAMP, 5-HT7D; type: cell-based
T3 construct: expressed in transfected cells
Procedure: as §1, §2

5-HT2A receptor = 5-HT2A receptor (Mus musculus, UniProt P35363); assay: Mouse head twitch response (HTR); type: in vivo; design: endogenous in cells; host or cells: adult male C57BL/6J mice, in vivo; conditions: for ED50: mouse
Procedure: The head twitch response (HTR) assay in rodents is commonly used as a behavioral proxy for 5-HT2A receptor activation. For classical serotonergic psychedelics, mouse HTR potency correlates with potency of subjective effects in humans. The ability of compound 2-1 to induce HTR in mice was assessed using a validated and automated detection system. Briefly, adult male C57BL/6J mice surgically prepared with a small neodymium magnet (4.57 mm×4.57 mm×2.03 mm) attached to the cranium were injected intraperitoneally (i.p.) with single doses of compound 2-1 (0.3, 1, 3, 10, 30 mg/kg, based on weight of the free base) or 40% (w/v) 2-HPBCD (hydroxypropyl-beta-cyclodextrin) vehicle (n=5-6 mice per treatment). In a 5-HT2A receptor antagonism study, M100907, a 5-HT receptor antagonist (0.001, 0.01, 0.1 mg/kg, i.p.) was administered 20 minutes prior to compound 2-1. Immediately after compound 2-1 injection, the mouse was placed individually in a glass cylinder surrounded by a magnetometer coil. HTR were recorded for 30 minutes and analyzed using a validated technique based on artificial intelligence. […] In FIG. 1A, FIG. 1B, and FIG. 1C, HTR data were analyzed using a 1-way Analysis of Variance (ANOVA) followed by Dunnett's test **p<0.01, ***p<0.001, ****p<0.0001 vs. vehicle).
The HTR assay in rodents is commonly used as a behavioral proxy for 5-HT2A receptor activation. For classical serotonergic psychedelics, mouse HTR potency correlates with potency of subjective effects in humans. The ability of compound 2-2 to induce HTR in mice was assessed using a validated and automated detection system. Briefly, adult male C57BL/6J mice surgically prepared with a small neodymium magnet (4.57 mm×4.57 mm×2.03 mm) attached to the cranium were injected intraperitoneally (i.p.) with single doses of compound 2-2 (0.3, 1, 3, 10, 30 mg/kg, based on weight of the free base) or 40% (w/v) 2-HPBCD vehicle (n=5-6 mice per treatment). In a 5-HT2A receptor antagonism study, M100907 (0.001, 0.01, 0.1 mg/kg, i.p.) was administered 20 minutes prior to compound 2-2. Immediately after compound 2-2 injection, the mouse was placed individually in a glass cylinder surrounded by a magnetometer coil. HTR were recorded for 30 minutes and analyzed using a validated technique based on artificial intelligence. […] HTR were analyzed using a 1-way Analysis of Variance (ANOVA) followed by Dunnett's test (*p<0.05, **p<0.01, ***p<0.001, ****p<0.0001 vs. vehicle).

5-HT2A [3] = assay: IPOne, 5-HT2A; type: cell-based, human; conditions: IPOne, human; calculated using ΔΔlog(Emax/EC50), reference = 1
Procedure: as §1, §2

5-HT1F = molecular target: T4, 5-HT1F (Homo sapiens, UniProt P30939); assay: cAMP, 5-HT1F; type: cell-based
T4 construct: expressed in transfected cells
T4 sequence (P30939 1-366): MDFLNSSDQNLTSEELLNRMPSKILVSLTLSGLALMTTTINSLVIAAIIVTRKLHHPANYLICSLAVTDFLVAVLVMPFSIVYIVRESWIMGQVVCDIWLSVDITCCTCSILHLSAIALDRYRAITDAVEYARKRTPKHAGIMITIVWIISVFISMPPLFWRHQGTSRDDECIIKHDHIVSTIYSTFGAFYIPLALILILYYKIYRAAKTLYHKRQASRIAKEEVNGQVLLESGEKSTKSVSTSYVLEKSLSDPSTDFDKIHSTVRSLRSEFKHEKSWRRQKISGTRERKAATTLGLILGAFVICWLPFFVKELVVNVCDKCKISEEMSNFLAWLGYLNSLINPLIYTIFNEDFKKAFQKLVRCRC
Procedure: as §1, §2

5-HT2A [4] = assay: Ca++ (calcium mobilization), 5-HT2A; type: cell-based, human; conditions: Ca++, human; calculated using ΔΔlog(Emax/EC50), reference = 1
Procedure: as §1, §2

5-HT5A = molecular target: T5, 5-HT5A (Homo sapiens, UniProt P47898); assay: cAMP, 5-HT5A; type: cell-based
T5 construct: expressed in transfected cells
Procedure: as §1, §2

[5] = ip, C57BL/6J mice, 30 minutes, read-out: HTR 50% effective dose (ED50)

T5 sequence (P47898 whole entry): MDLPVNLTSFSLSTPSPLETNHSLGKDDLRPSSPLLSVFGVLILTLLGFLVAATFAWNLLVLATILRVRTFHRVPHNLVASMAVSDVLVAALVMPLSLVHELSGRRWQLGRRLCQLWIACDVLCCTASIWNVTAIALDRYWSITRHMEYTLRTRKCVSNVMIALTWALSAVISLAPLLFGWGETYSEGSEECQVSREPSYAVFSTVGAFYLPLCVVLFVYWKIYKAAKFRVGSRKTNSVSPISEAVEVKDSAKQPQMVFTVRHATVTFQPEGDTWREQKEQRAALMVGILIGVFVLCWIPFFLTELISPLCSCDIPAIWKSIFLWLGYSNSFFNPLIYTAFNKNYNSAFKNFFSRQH
T2 sequence (P28223 whole entry): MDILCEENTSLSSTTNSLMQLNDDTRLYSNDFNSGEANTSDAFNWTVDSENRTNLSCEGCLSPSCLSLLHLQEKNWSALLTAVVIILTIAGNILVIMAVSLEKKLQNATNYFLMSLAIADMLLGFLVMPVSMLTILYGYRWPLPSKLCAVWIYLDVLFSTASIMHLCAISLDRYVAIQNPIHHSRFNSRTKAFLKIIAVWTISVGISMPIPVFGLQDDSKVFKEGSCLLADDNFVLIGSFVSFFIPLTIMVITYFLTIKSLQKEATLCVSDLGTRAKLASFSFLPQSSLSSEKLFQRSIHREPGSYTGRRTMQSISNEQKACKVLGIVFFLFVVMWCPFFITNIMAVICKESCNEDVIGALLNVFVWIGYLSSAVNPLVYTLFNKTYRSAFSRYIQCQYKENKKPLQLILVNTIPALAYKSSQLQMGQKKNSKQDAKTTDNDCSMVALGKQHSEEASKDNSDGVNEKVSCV
Sequence of 5-HT2A receptor (P35363 whole entry): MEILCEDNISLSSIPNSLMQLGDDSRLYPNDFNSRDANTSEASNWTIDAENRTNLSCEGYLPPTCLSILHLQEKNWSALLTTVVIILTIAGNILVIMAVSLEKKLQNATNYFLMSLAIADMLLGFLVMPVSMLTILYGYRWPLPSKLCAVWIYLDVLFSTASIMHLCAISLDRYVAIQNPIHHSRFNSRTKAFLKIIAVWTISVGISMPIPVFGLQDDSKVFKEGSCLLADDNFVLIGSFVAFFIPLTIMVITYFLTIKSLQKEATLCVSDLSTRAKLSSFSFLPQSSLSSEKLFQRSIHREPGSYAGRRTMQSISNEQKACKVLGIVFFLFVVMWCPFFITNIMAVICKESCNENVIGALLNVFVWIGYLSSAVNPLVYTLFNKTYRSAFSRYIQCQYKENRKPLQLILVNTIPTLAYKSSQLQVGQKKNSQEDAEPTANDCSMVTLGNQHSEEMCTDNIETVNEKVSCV
T1 sequence (P41595 whole entry): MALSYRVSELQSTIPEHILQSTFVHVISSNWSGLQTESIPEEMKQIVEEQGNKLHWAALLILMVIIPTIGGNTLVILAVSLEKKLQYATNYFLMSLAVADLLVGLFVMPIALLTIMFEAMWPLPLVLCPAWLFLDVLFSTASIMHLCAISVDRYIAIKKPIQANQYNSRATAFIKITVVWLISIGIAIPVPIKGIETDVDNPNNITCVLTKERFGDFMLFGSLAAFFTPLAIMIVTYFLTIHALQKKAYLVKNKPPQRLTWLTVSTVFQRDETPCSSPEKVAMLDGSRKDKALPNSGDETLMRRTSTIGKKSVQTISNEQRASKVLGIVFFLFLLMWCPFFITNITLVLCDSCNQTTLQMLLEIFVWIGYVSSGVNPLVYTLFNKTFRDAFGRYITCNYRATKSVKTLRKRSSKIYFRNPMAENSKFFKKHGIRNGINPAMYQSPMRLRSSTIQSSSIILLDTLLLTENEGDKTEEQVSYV
T3 sequence (P34969 whole entry): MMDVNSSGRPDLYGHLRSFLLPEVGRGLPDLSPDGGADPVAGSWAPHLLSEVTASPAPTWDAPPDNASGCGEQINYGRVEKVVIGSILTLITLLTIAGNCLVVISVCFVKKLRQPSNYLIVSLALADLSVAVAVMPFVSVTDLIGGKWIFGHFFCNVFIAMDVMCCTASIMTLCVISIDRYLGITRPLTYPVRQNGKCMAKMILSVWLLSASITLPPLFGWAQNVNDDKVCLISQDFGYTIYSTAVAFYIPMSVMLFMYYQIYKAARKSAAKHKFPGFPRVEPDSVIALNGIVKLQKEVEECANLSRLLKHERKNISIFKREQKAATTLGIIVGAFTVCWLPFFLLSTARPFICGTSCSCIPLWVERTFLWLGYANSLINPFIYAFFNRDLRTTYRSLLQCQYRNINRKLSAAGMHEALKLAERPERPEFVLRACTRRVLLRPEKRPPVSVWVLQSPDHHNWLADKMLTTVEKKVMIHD

Row | Structure (SMILES) | IC50 (5-HT2B) [nM] | Max % inhibition (5-HT2B) [%] | EC50 (5-HT2A [1]) [nM] | Emax (5-HT2A [1]) [%] | IC50 (5-HT2A [2]) [nM] | Max % inhibition (5-HT2A [2]) [%] | EC50 (5-HT7D) [nM] | shape of HTR dose-response curve (5-HT2A receptor; 0.3-30 mg/kg i.p.) | HTR compared to vehicle (5-HT2A receptor; 3 and 10 mg/kg, i.p.) | HTR after M100907 pretreatment (5-HT2A receptor; M100907 0.001, 0.01, 0.1 mg/kg i.p. 20 minutes prior, compound i.p.) | ED50 (5-HT2A receptor; [5]) [mg/kg] | ED50 (5-HT2A receptor; po, mice, read-out: HTR ED50) [mg/kg] | HTR compared to vehicle (5-HT2A receptor; oral, 30 mg/kg) | 5-HT2A/5-HT2B Selectivity (5-HT2A [3]) | EC50 (5-HT1F) [nM] | 5-HT2A/5-HT2C Selectivity (5-HT2A [4]) | EC50 (5-HT5A) [nM] | Emax (5-HT5A; cAMP, human 5-HT5A, read-out: Emax (%5-HT)) [%] | agonist activity (in words) (5-HT5A; human 5-HT5A receptor)
1 | COc1ccc(OC)c(CCNCc2cc(C)cc(Cl)c2)c1 [Compound 2-1, N-(3-chloro-5-methylbenzyl)-2-(2,5-dimethoxyphenyl)ethan-1-amine] | 84.9 | 102.5 | 17.2 | 89.3 | 42.4 | 96.93 | > 100000 | inverted “U”-shaped | significantly increased | significant dose-dependent attenuation | 1.7 | 15.7 | increased HTR significantly | 160 | > 9000 | 77 | 25.2 | 44.4 | partial agonist activity
2 | COc1ccc(OC)c(CCNCc2cc(C)cc(F)c2)c1 [Compound 2-2, 2-(2,5-dimethoxyphenyl)-N-(3-fluoro-5-methylbenzyl)ethan-1-amine] | 321 | 99.56 | 25.8 | 82.1 | 105 | 99 | > 100000 |  |  |  | 3.2 | 13.7 |  | 177 | > 25000 | 56 | > 30000 |  | 
